Experiment: Solid-liquid equilibrium temperature
Settings: Crystal

c1ccccc1 [benzene]
pressure-volume curve discontinuity
Settings | Solid-liquid equilibrium temperature [K]
53620 kPa | 293.15
92220 kPa | 303.15
133290 kPa | 313.15
176820 kPa | 323.15
222810 kPa | 333.15
271270 kPa | 343.15
322200 kPa | 353.15

CCCCCCCCCCCCCCCC [hexadecane]
pressure-volume curve discontinuity
Settings | Solid-liquid equilibrium temperature [K]
9210 kPa | 293.15
50650 kPa | 303.15
95560 kPa | 313.15
143920 kPa | 323.15
195740 kPa | 333.15
251030 kPa | 343.15

CCCCCCCCCCCCCCCCCC [octadecane]
pressure-volume curve discontinuities
Settings | Solid-liquid equilibrium temperature [K]
8860 kPa | 303.15
49600 kPa | 313.15
94900 kPa | 323.15
144780 kPa | 333.15
199220 kPa | 343.15
258230 kPa | 353.15
